According to US20230312576A1, “4-(7H-PYRROLO[2,3-D]PYRIMIDIN-4-YL)-3,6-DIHYDROPYRIDINE-1-(2H)-CARBOXAMIDE DERIVATIVES AS LIMK AND/OR ROCK KINASES INHIBITORS FOR USE IN THE TREATMENT OF CANCER” (CENTRE NATIONAL DE LA RECHERCHE SCIENTIFIQUE, priority 2020, published 2023):
Read-outs that look alike come from different tables or passages of the source.

Legend:
[1] = system: MPNST cell line; settings: published data; cited from earlier work
[2] = system: HeLa cells; test: Cytotoxicity, CellTiter-Glo Luminescent Cell Viability assay, HeLa; assay type: cell-based; settings: 48 hours, read-out: EC50 (inhibitor concentration corresponding to half of live cells)
[3] = system: U2OS cells; test: Microtubule dynamics by visualizing mitotic spindles; assay type: cell-based; settings: 2.5 μM, 24 hours
[4] = system: U2OS cells; test: Wound-healing migration assay; assay type: cell-based; settings: 2.5 μM, 24 h
[5] = biological target: LIMK1 (Homo sapiens (Human), UniProt P53667); test: Lanthascreen Eu binding assay (TR-FRET), inhibition of LIMK1; settings: Lanthascreen Eu binding assay
[6] = system: cofilin phosphorylation, HeLa cells; test: Cofilin phosphorylation by Western Blot (anti-phospho-Ser3-cofilin) in HeLa cells; assay type: cell-based; settings: Homo sapiens, 2 h
[7] = system: cofilin phosphorylation, MPNST88-14 cells; test: Cofilin phosphorylation by Western Blot in MPNST88-14 cells; assay type: cell-based; settings: read-out: % inhibition Cofilin phosphorylation MPNST88-14 cells treated 2 h with 25 uM of inhibitor, MPNST88-14 cells, 25 uM
[8] = biological target: LIMK2 (Homo sapiens (Human), UniProt P53671); test: Lanthascreen Eu binding assay (TR-FRET), inhibition of LIMK2; settings: Lanthascreen Eu binding assay
[9] = biological target: ROCK2 (Homo sapiens (Human), UniProt O75116); test: Z'Lyte assay, ROCK2 inhibition at a single concentration; assay type: biochemical; settings: read-out: % inhibition (ROCK2) 1 uM, 1 uM
[10] = system: cofilin phosphorylation, MPNST90-8 cells; test: Cofilin phosphorylation by Western Blot in MPNST90-8 cells; assay type: cell-based; settings: read-out: % inhibition Cofilin phosphorylation MPNST90-8 cells treated 2 h with 25 uM of inhibitor, MPNST90-8 cells, 25 uM
[11] = biological target: ROCK1 (Homo sapiens (Human), UniProt Q13464); test: Z'Lyte assay, ROCK1 inhibition at a single concentration; assay type: biochemical; settings: read-out: % inhibition (ROCK1) 1 uM, 1 uM
[12] = biological target: LIMK1 and LIMK2; test: Lanthascreen Eu binding assay, Ki without LIMK isoform; settings: LIMK isoform not stated
[13] = system: SOD1-G93A transgenic mice; test: In vivo assay on a mouse model of ALS; settings: 10 mg/Kg intraperitoneal, 2 times a week from week 8
[14] = HeLa, read-out: % inhibition of cofilin phosphorylation in HeLa cells (treatment 2 h, at 25 μM), Table 2, normalized to the control condition DMSO
[15] = read-out: % inhibition Cofilin phosphorylation HeLa cells treated 2 h with 25 uM of inhibitor, HeLa cells, 25 uM

Chain of LIMK1 (P53667 whole entry): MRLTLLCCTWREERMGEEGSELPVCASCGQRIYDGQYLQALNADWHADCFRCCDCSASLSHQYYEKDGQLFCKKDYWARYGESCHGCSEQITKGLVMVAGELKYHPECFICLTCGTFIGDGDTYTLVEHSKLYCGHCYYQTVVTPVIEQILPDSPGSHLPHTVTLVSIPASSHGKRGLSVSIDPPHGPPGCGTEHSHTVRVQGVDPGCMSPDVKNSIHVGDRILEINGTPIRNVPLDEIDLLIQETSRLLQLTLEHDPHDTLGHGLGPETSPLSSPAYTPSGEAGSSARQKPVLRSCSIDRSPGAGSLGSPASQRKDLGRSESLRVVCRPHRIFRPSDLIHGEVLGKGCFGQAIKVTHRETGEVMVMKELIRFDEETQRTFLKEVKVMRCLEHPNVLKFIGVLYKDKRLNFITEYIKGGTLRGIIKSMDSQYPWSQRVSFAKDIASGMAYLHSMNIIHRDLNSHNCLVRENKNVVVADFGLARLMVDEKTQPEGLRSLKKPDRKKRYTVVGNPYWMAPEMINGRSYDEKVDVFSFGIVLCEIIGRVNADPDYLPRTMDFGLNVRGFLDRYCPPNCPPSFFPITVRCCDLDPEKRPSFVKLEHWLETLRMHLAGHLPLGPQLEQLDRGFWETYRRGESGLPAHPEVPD
Chain of LIMK2 (P53671 whole entry): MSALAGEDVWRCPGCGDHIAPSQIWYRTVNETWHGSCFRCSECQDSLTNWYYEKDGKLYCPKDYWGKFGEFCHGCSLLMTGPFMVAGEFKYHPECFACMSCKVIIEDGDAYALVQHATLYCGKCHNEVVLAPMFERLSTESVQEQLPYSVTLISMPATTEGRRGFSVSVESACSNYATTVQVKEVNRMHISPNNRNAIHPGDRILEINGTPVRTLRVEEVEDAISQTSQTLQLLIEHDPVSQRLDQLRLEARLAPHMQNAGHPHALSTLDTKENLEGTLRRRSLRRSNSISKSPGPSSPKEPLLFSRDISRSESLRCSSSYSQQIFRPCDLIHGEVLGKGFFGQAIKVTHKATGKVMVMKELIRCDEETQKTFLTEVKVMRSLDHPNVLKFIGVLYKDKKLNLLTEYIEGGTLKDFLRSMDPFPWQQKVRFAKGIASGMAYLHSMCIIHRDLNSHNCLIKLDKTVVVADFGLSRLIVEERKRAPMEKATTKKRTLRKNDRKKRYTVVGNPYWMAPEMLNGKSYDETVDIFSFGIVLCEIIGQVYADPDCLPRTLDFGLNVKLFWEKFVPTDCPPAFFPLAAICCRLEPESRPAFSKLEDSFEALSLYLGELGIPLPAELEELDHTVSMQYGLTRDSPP
Chain of ROCK2 (O75116 whole entry): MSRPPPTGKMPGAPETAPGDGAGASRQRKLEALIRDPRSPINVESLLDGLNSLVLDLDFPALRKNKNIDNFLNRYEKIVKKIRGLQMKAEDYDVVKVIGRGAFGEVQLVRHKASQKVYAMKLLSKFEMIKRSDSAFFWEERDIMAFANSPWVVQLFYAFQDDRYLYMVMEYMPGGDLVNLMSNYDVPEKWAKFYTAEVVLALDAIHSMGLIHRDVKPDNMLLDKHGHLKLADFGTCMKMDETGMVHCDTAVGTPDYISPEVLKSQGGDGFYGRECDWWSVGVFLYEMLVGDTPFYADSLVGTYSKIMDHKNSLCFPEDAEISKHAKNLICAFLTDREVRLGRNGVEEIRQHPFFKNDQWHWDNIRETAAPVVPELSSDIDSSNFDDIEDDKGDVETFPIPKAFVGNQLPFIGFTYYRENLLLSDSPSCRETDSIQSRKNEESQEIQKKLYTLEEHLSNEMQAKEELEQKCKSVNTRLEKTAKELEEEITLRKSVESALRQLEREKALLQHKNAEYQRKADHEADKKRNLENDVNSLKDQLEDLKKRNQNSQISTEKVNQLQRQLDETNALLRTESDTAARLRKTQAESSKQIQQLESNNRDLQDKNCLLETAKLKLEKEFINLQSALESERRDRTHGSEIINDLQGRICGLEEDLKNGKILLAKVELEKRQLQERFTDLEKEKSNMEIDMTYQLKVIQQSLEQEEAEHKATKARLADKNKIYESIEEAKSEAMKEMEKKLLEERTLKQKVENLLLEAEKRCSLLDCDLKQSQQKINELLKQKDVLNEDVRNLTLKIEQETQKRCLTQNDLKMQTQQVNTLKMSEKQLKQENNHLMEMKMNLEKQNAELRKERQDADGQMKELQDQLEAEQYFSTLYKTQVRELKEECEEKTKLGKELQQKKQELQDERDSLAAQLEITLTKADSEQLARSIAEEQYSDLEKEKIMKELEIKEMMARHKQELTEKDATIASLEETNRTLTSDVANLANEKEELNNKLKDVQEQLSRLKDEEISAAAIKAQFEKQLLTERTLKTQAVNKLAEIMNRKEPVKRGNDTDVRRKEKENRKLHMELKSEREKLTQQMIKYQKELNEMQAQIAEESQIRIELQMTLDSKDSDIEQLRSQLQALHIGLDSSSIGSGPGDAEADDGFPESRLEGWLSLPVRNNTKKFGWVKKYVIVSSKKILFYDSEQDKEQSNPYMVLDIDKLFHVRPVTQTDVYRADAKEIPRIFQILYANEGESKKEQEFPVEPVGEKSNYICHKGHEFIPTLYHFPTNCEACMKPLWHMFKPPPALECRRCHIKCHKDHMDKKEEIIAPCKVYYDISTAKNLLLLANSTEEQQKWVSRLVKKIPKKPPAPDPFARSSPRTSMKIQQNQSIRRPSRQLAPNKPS
Chain of ROCK1 (Q13464 whole entry, canonical isoform): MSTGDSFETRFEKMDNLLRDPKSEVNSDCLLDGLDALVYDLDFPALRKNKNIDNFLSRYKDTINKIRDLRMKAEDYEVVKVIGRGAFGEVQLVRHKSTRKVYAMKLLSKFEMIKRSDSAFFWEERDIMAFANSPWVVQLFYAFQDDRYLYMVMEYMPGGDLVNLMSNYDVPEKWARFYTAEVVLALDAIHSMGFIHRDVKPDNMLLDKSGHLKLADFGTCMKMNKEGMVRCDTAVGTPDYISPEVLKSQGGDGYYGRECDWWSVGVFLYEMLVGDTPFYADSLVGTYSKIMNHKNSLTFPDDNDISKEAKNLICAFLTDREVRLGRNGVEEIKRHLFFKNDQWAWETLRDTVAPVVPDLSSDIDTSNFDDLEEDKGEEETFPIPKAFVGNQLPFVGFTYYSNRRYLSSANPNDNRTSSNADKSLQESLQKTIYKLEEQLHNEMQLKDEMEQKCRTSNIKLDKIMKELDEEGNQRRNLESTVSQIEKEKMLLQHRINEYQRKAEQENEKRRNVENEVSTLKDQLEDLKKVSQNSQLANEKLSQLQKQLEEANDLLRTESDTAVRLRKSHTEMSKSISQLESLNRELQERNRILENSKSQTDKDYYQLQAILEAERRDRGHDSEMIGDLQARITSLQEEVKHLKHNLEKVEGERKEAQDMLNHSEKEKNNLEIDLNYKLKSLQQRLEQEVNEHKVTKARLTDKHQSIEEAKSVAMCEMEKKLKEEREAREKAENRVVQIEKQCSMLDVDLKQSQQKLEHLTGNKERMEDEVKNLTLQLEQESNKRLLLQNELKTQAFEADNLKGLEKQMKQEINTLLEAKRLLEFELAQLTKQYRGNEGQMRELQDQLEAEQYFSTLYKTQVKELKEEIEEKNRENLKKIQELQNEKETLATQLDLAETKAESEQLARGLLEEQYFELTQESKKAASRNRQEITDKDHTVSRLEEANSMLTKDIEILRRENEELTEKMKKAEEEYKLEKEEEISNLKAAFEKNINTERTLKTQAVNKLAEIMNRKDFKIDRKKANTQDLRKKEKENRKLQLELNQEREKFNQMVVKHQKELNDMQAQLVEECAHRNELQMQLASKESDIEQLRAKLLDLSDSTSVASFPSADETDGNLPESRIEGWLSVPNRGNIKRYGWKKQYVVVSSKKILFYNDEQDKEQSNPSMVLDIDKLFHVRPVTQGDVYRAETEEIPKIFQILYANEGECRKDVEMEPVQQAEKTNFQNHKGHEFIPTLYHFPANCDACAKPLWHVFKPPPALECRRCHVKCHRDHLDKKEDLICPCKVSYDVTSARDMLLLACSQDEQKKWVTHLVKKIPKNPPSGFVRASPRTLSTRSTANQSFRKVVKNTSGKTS

Row | SMILES | Ki [5] | inhibition at 25 µM [6, 14] | inhibition at 25 µM [6, 15] | Ki [8] | inhibition at 1 µM [9] | inhibition at 1 µM [11] | further results
1 | Cc1cc(C(=O)Nc2cccc(C(=O)Nc3cccc(C(F)(F)F)c3)c2)on1 [Compound T56-LIMKi] |  |  |  |  |  |  | EC50 [1]: ~20 µM
2 | CC(C)C(=O)Nc1ncc(-c2cc(C(F)F)nn2-c2c(Cl)cccc2Cl)s1 [LIMKi3] |  |  |  |  |  |  | EC50 [2]: 9 µM
3 | Cc1c[nH]c2ncnc(C3=CCN(C(=O)Nc4cccc(Oc5ccccc5)c4)CC3)c12 [Compound 15, 4-(5-Methyl-7H-pyrrolo[2,3-d]pyrimidin-4-yl)-N-(3-phenoxy-phenyl)-3,6-dihydropyridine-1(2H)-carboxamide] | 0.0194 µM | 92.1% | 92.1% | 0.0144 µM | 24% | 44% | effects on microtubule dynamics (mitotic spindles) [3]: strong effects on microtubule dynamics; inhibition of U2OS cell migration upon scratch [4]: particularly efficient; inhibition at 25 µM [7]: 78.6%; inhibition at 25 µM [10]: 83.2%
4 | Cc1c[nH]c2ncnc(N3CCC(CN)(C(=O)Nc4cccc(OC(=O)N(C)C)c4)CC3)c12 [LX7101, reference compound] |  | 85.1% |  |  |  |  | Ki [12]: 0.0039 µM
5 | O=C(Nc1cccc(F)c1)N1CC=C(c2ncnc3[nH]c4c(c23)CCC4)CC1 [Compound 110, N-(3-Fluorophenyl)-4-(5,6,7,8-tetrahydrocyclopenta[4,5]pyrrolo[2,3-d]pyrimidin-4-yl)-3,6-dihydropyridine-1(2H)-carboxamide] | 0.005 µM | 79% | 79% | 0.041 µM | 9% | 3% | later development of the disease phenotype and endpoint of the disease (survival) [13]: do not observed improvement; loss of weight [13]: significant effect on delaying; onset of motor symptoms (early Neuroscore stages and first time decay in the rotarod test) [13]: significant effect on delaying
